Measurements as given in US9428431B2, “Compositions comprising CB receptor agonists, uses thereof and methods for their preparation” (Yissum Research Development Company of the Hebrew …, priority 2008, dated 2016).
Like-named read-outs stand apart in the source and are kept apart here.

What was measured:
CB1 receptor [1] = target: T1, CB1 receptor (Rattus norvegicus, UniProt P20272); assay: CB1 receptor binding, [3H]HU-243 displacement, synaptosomal membranes; design: species or system Sabra rats
T1 construct: synaptosomal membranes were prepared from the brains of Sabra rats by homogenization and gradient centrifugation; from tissue; host or cells: brain of Sabra rats, synaptosomal membranes
T1 sequence (P20272 whole entry): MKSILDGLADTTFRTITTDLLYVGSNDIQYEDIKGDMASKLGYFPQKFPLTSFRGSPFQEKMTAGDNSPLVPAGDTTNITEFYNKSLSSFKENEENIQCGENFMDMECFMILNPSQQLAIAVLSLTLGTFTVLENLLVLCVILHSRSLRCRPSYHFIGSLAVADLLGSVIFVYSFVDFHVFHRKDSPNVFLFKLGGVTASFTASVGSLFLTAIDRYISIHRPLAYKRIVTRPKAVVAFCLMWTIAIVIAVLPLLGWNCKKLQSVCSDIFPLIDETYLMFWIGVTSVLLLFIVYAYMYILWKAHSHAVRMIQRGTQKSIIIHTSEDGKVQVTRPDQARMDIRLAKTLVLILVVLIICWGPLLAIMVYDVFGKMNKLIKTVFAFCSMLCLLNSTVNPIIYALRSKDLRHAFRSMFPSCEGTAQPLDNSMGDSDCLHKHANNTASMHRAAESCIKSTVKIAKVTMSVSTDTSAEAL
Description: For CB1 receptor binding, synaptosomal membranes were prepared from the brains of Sabra rats by homogenization and gradient centrifugation (Devane et al, 1992). For CB2 receptor binding assay, COS-7 cells were transfected with plasmids containing CB2 cDNA, and crude membranes were prepared (Munro et al, 1993).
Bound and free radioligands were separated by centrifugation. The data were normalized to 100% of specific binding, which was determined with 50 nM unlabeled HU-243.

[2] = test system: Osteoblastic MC3T3 E1 cells; assay: Stimulation of MC3T3 E1 osteoblastic cell number; type: cell-based; conditions: for ligand concentration that doubled cell number: MC3T3 E1 cells, last 46 hours in culture, DMSO solution
Description: Osteoblastic MC3T3 E1 cells were cultured as reported in Miguel et al, 2005. […] Control cultures were treated only with the DMSO solvent (Ofek et al, 2006).

OVX mouse model = assay: Rescue of ovariectomy (OVX)-induced trabecular bone loss, μCT of L3 vertebrae; type: in vivo
Description: Data are mean±S.E. obtained in 6 mice per condition. (*) p<0.05.
Using this experimental system for testing bone anabolic activity, OVXed mice are left untreated to allow for bone loss to occur, followed by a treatment period intended for reversal of the bone loss (Alexander et al, 2001).

CB1 receptor [3] = target: T1, CB1 receptor; conditions: cited from earlier work
CB2 receptor = target: T2, CB2 receptor (Homo sapiens, UniProt P34972); conditions: Hanus et al.; cited from earlier work
T2 construct: expressed in transfected cells; host or cells: COS-7 cells
T2 sequence (P34972 whole entry): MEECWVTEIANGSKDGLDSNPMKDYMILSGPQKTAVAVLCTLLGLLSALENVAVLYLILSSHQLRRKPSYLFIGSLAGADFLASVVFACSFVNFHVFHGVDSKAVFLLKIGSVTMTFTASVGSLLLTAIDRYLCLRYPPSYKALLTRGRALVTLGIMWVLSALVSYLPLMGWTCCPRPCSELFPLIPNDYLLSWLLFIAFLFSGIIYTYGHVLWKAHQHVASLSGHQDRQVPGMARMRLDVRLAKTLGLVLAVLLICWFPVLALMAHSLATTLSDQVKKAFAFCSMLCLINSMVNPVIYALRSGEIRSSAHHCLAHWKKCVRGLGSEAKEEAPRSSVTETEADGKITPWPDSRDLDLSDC

[4] = test system: osteoblastogenesis / osteoclastogenesis; conditions: cited from earlier work
mice = conditions: cited from earlier work

Row | SMILES | Ki (CB1 receptor [1]) [µM] | binding to CB1 receptor (CB1 receptor [1]; present example) | in vitro skeletal activity compared to HU-308 ([2]; MC3T3 E1 cell number assay) [fold] | ligand concentration that doubled cell number [2] | rescue of OVX-induced trabecular bone loss (OVX mouse model; 0.2 mg/Kg/day intraperitoneal for 6 weeks, starting 6 weeks after OVX, L3 vertebrae μCT) | effect compared with reversal of bone volumetric density by parathyroid hormone (1-34) (OVX mouse model; comparison with Alexander et al, 2001) | reversal of OVX-induced trabecular bone loss (OVX mouse model; 20 mg/Kg/day intraperitoneal for 6 weeks, starting 6 weeks after OVX, L3 vertebrae μCT) [%] | binding to CB1 receptor (CB1 receptor [3]; Hanus et al.) | Ki (CB1 receptor [3]; read-out: Ki CB1, HU-308, from Hanus et al, 1999) [µM] | binding to CB2 receptor (CB2 receptor) | in vitro osteoblastogenesis [4] | in vitro osteoclastogenesis [4] | OVX-induced bone loss (mice; another mouse model, Bab et al, 2008) | bone formation (mice; mice, Ofek et al, 2006) | bone resorption (mice; mice, Ofek et al, 2006) | ovariectomy (OVX)-induced bone loss (mice; mice, Ofek et al, 2006) | Kd (CB1 receptor [3]; radioligand probe, read-out: dissociation constant for the CB1 receptor) [nM]
1 | CCCCCCC(C)(C)c1cc(OC)c([C@@H]2C=C(CO)C3CC2C3(C)C)c(OC)c1 (single isomer, unassigned; (-)) [HU-433, (−)-2-(3-myrtenyl)-5-dimethylheptyl resorcinol] | > 20 | did not bind to CB1 receptor | 1000 | 10^−11 M | significantly rescued almost the entire OVX-induced trabecular bone loss | substantially greater | – | – | – | – | – | – | – | – | – | – | –
2 | CCCCCCC(C)(C)c1cc(OC)c([C@@H]2C=C(CO)[C@@H]3C[C@H]2C3(C)C)c(OC)c1 [HU-308] | – | – | – | 10^−8 M | – | – | 50 | did not bind to CB1 receptor | > 10 | potent binding to CB2 receptor | stimulates | inhibits | rescues | stimulates bone formation | inhibits bone resorption | attenuating | –
3 | CCCCCCC(C)(C)c1cc(O)c2c(c1)OC(C)(C)[C@@H]1CC[C@@H](CO)C[C@@H]21 [[^3H]HU-243] | – | – | – | – | – | – | – | – | – | – | – | – | – | – | – | – | 0.045 ± 0.007
